The NIST ThermoML archive (doi:10.1016/j.jct.2019.07.007)

Test: wn = mass fraction of the nth substance listed
Conditions: 101 kPa, Liquid, Concentric cylinders viscometry

CC(O)CN(C)C (centres undefined) [1-(dimethylamino)-2-propanol] + O
viscosity [mPa·s]
Conditions | 303.2 K | 313.2 K | 323.2 K
w1 = 0.3 | 3.1 | 2.18 | 1.66
w1 = 0.4 | 4.56 | 3.08 | 2.19
w1 = 0.5 | 6.01 | 3.96 | 2.79
